Test results taken from patent publication US20160066610A1, “METHODS FOR ENHANCING AGED MUSCLE REGENERATION” (ABBOTT LABORATORIES, priority 2013, published 2016).
“And” between values parts separate entries of the source, which are not always exact repeats. Equal entries are not always repeated.

Tested on: FGF2
Assay: Intramuscular FGF2 in gastrocnemius muscle lysates after 8 weeks of dietary supplementation, aged SD rat model of sarcopenia
Format: in vivo, Sprague Dawley (SD) rat
Settings: for level of intramuscular FGF2, individual rat / level of intramuscular FGF2, AVE: aged (21 month) SD rats, gastrocnemius lysate, end of 8 week study, EGCg 50 mg/kg bw; for level of intramuscular FGF2, individual rat: Ca-HMB 340 mg/kg bw in AIN-93M diet, one value per rat (Rat 1-10); for % Change from Control (intramuscular FGF2): group average vs control diet AIN-93M, 8 weeks; for level of intramuscular FGF2, AVE: group average, Ca-HMB 340 mg/kg bw
Description: Example 3 illustrates the effect of 8 weeks of dietary supplementation in the aged Sprague Dawley (SD) rat model of sarcopenia. More particularly, the level of intramuscular FGF2 in gastrocnemius muscle lysates of aged SD rats (21 month) were analyzed and compared. The four experimental groups included:
1) control group: fed AIN-93M (purified diet);
2) EGCg group: fed AIN-93M+EGCg (Teavigo®-DSM-50 mg/kg bw);
3) HMB group: fed AIN-93M+Ca-HMB (340 mg/kg bw); and
4) HMB+EGCg group: fed AIN-93M+Ca-HMB (340 mg/kg bw)+EGCg (Teavigo®-50 mg/kg bw).
A total of 40 rats were divided equally among the four groups. Whole gastrocnemius muscles were collected from euthanized rats and flash frozen in liquid nitrogen. Approximately 200 mg tissue was obtained from each muscle by mechanical biopsy punch. Specimens were then pulverized on liquid nitrogen and transferred to 15 mL conical tube and weighed. A mild, detergent free lysis buffer (9×) was added to the dried specimen in the conical tube. 9× Lysis buffer (50 mM Tris.HCl, 2 mM EDTA, pH 7.4/NaOH) was supplemented with a mammalian protease inhibitor cocktail (Sigma) at a 1:200 dilution and stored on ice. The specimens were then vortexed again for 10 sec. and transferred to a 1.5 mL tube. Lysates were centrifuged/clarified for 5 min. at 11000 rpm at 4° C. in a standard table-top Eppendorf centrifuge. Supernatant (1 mL) was aliquotted to a 2 mL cryotube and stored at −80° C. Lystates were analyzed by Myriad Rules Based Medicine (Austin, Tex.) on the RodentMAP® v. 2.0 Antigens and Rat METABOLIC® multi-analyte profiling platforms.

CC(C)(O)CC(=O)O [HMB, beta-hydroxy-beta-methylbutyrate]
level of intramuscular FGF2, individual rat: 15.0 ng/mL of lysate and 21.0 ng/mL of lysate and 6.1 ng/mL of lysate and 3.1 ng/mL of lysate and 4.3 ng/mL of lysate and 11.0 ng/mL of lysate and 4.0 ng/mL of lysate and 4.9 ng/mL of lysate
% Change from Control (intramuscular FGF2): 18.8%
level of intramuscular FGF2, AVE: 8.68 ng/mL of lysate

epigallocatechin-3-gallate [EGCg]
level of intramuscular FGF2, individual rat: 3.7 ng/mL of lysate (2×) and 16.0 ng/mL of lysate and 15.0 ng/mL of lysate and 9.9 ng/mL of lysate and 5.5 ng/mL of lysate and 3.1 ng/mL of lysate (3×) and 7.8 ng/mL of lysate
% Change from Control (intramuscular FGF2): −2.9%
level of intramuscular FGF2, AVE: 7.09 ng/mL of lysate
